Data published in ChEMBL document CHEMBL6078724, “Discovery of the first examples of right open reading frame kinase 2 (RIOK2) molecular glue degraders” (Eur J Med Chem, 2025).
Active and inactive are the calls of the source. The calls are words filed in the database; no cut-off is given here.

Key:
[1] = target: T1, E3 ubiquitin-protein ligase RNF126/Serine/threonine-protein kinase RIO2 (Homo sapiens, UniProt Q9BVS4+Q9BV68); assay: Molecular glue degradation activity at RNF126/RIOK2 in human MOLT-4 cells assessed as induction protein degradation incubated for 12 hrs by immunoblot analysis; type: cell-based
Target sequence in this assay (Q9BVS4 whole entry): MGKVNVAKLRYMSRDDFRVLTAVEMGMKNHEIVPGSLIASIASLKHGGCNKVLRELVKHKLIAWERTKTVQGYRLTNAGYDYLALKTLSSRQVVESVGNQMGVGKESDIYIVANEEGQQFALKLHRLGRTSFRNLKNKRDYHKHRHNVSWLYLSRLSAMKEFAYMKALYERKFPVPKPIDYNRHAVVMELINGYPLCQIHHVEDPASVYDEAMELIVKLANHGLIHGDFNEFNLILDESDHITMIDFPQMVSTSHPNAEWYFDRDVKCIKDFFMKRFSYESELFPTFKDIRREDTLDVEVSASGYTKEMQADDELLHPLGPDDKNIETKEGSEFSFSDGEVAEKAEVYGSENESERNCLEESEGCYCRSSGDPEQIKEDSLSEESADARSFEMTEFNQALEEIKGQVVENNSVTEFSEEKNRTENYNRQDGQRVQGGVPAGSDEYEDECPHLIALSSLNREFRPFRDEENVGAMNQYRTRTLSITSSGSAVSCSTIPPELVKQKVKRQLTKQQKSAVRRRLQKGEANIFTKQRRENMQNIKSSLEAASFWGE
Target sequence in this assay (Q9BV68 whole entry): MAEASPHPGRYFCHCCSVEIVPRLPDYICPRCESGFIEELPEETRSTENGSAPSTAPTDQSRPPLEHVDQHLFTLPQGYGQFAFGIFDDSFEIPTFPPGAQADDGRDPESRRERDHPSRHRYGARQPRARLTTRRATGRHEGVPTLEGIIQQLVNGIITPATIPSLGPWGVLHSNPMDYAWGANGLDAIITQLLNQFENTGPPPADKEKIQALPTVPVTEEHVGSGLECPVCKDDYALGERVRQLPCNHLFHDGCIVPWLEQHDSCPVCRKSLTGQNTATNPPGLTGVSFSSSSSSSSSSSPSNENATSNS

[2] = target: T1, E3 ubiquitin-protein ligase RNF126/Serine/threonine-protein kinase RIO2; assay: Molecular glue degradation activity at RNF126/RIOK2 in human MOLT-4 cells assessed as induction protein degradation incubated for 12 hrs by immunoblot analysis relative to control; type: cell-based
Target sequence in this assay (Q9BV68 2-311 partner limits assumed): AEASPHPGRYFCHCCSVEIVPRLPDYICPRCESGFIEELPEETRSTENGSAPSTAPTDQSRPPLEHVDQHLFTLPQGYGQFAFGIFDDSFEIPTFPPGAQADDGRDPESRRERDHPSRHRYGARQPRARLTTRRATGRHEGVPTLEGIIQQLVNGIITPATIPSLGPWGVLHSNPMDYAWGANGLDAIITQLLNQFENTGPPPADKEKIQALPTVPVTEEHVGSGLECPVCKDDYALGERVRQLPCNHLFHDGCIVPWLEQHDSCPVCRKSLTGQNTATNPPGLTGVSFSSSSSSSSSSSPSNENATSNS
Target sequence in this assay (Q9BVS4 whole entry): as the sequence (Q9BVS4 whole entry) above

A549 = assay: Antiproliferative activity against human A549 cells incubated for 72 hrs by CCK8 assay; type: functional, cell-based; conditions: A549, 72 h
K562 = assay: Antiproliferative activity against human K562 cells incubated for 72 hrs by CCK8 assay; type: functional, cell-based; conditions: K562, 72 h
[3] = Antiproliferative activity against human MRC5 cells incubated for 72 hrs by CCK8 assay; type: toxicity, cell-based
MOLT-4 [4] = assay: Antiproliferative activity against human MOLT-4 cells incubated for 72 hrs by CCK8 assay; type: functional, cell-based; conditions: MOLT-4, 72 h
MOLT-4 [5] = assay: Induction of cell cycle arrest in human MOLT-4 cells assessed as accumulation at G2/M phase at 900 nM incubated for 24 hrs by PI staining based flow cytometry relative to control; type: functional
[6] = Antiproliferative activity against mouse NIH3T3 cells incubated for 72 hrs by CCK8 assay; type: toxicity, cell-based
[7] = target: T1, E3 ubiquitin-protein ligase RNF126/Serine/threonine-protein kinase RIO2; assay: Molecular glue degradation activity at RNF126/RIOK2 in human MOLT-4 cells assessed as decrease in AKT level at 500 nM incubated for 12 hrs by immunoblot analysis; type: cell-based
Target sequence in this assay (Q9BV68 2-311 partner limits assumed): as the sequence (Q9BV68 2-311 partner limits assumed) above
Target sequence in this assay (Q9BVS4 whole entry): as the sequence (Q9BVS4 whole entry) above

MOLT-4 [8] = assay: Induction of apoptosis in human MOLT-4 cells at 900 nM incubated for 48 hrs by Annexin V-FITC/PI staining based flow cytometry relative to control; type: functional
[9] = target: T1, E3 ubiquitin-protein ligase RNF126/Serine/threonine-protein kinase RIO2; assay: Molecular glue degradation activity at RNF126/RIOK2 in human MOLT-4 cells assessed as decrease in mTOR level at 500 nM incubated for 12 hrs by immunoblot analysis; type: cell-based
Target sequence in this assay (Q9BV68 2-311 partner limits assumed): as the sequence (Q9BV68 2-311 partner limits assumed) above
Target sequence in this assay (Q9BVS4 whole entry): as the sequence (Q9BVS4 whole entry) above

[10] = Antiproliferative activity against HEK293 cells incubated for 72 hrs by CCK8 assay; type: toxicity, cell-based; conditions: human
U-937 = assay: Antiproliferative activity against human U-937 cells incubated for 72 hrs by CCK8 assay; type: functional, cell-based; conditions: U-937, 72 h
ASPC1 = assay: Antiproliferative activity against human ASPC1 cells incubated for 72 hrs by CCK8 assay; type: functional, cell-based; conditions: ASPC1, 72 h
HeLa = assay: Antiproliferative activity against human HeLa cells incubated for 72 hrs by CCK8 assay; type: functional, cell-based
HL-60 = assay: Antiproliferative activity against human HL-60 cells incubated for 72 hrs by CCK8 assay; type: functional, cell-based; conditions: HL-60, 72 h
OCI-Ly3 = assay: Antiproliferative activity against human OCILY3 cells incubated for 72 hrs by CCK8 assay; type: functional, cell-based; conditions: OCI-Ly3, 72 h
[11] = target: Serine/threonine-protein kinase RIO2 (Homo sapiens, UniProt Q9BVS4); assay: Binding affinity to RIOK2 (unknown origin) assessed as dissociation constant
Sequence of Serine/threonine-protein kinase RIO2 (Q9BVS4 whole entry): as above

Structure (SMILES) | DC50 [1] [nM] | Emax [2] [%] | other results
COc1ccc(C(=O)/C=C/C(=O)N2CCN(c3ccc(-n4nnc5c(=O)[nH]c6ccc(-c7ccc(OC)nc7)cc6c54)cc3C(F)(F)F)CC2)cc1 | 690 | 60.1 | –
COc1ccc(-c2ccc3[nH]c(=O)c4nnn(-c5ccc(N6CCN(C(=O)/C=C/C(=O)c7ccc(C)cc7)CC6)c(C(F)(F)F)c5)c4c3c2)cn1 | 1470 | 72.3 | –
COc1ccc(-c2ccc3[nH]c(=O)c4nnn(-c5ccc(N6CCN(C(=O)/C=C/C(=O)c7ccccc7)CC6)c(C(F)(F)F)c5)c4c3c2)cn1 | 1100 | 82.2 | –
COc1ccc(-c2ccc3[nH]c(=O)c4nnn(-c5ccc(N6CCN(C(=O)/C=C/c7ccc(C(F)(F)F)cc7)CC6)c(C(F)(F)F)c5)c4c3c2)cn1 | > 10000 | – | –
COc1ccc(-c2ccc3[nH]c(=O)c4nnn(-c5ccc(N6CCNCC6)c(C(F)(F)F)c5)c4c3c2)cn1 | – | – | IC50 (A549): 2550 nM; IC50 (K562): 2030 nM; IC50 at 72 h [3]: 1310 nM; IC50 (MOLT-4 [4]): 1260 nM; Activity (MOLT-4 [5]): 29.84%; IC50 at 72 h [6]: 2840 nM; Activity [7]: inactive; Activity (MOLT-4 [8]): 8.03%; Activity [9]: inactive; IC50 at 72 h [10]: 1940 nM; IC50 (U-937): 1840 nM; IC50 (ASPC1): 2430 nM; IC50 (HeLa): 1230 nM; IC50 (HL-60): 1210 nM; IC50 (OCI-Ly3): 520 nM
COc1ccc(-c2ccc3[nH]c(=O)c4nnn(-c5ccc(N6CCN(C(=O)/C=C/C(=O)c7ccc(F)c(F)c7)CC6)c(C(F)(F)F)c5)c4c3c2)cn1 | 980 | 77.3 | –
COc1ccc(-c2ccc3[nH]c(=O)c4nnn(-c5ccc(N6CCN(C(=O)CCC(=O)c7ccc(F)cc7)CC6)c(C(F)(F)F)c5)c4c3c2)cn1 | > 10000 | – | –
CCOc1ccc(C(=O)/C=C/C(=O)N2CCN(c3ccc(-n4nnc5c(=O)[nH]c6ccc(-c7ccc(OC)nc7)cc6c54)cc3C(F)(F)F)CC2)cc1 | 1280 | 70.6 | –
COc1ccc(-c2ccc3[nH]c(=O)c4nnn(-c5ccc(N6CCN(C(=O)C7=CCCC7)CC6)c(C(F)(F)F)c5)c4c3c2)cn1 | 2140 | 82.2 | –
COc1ccc(/C=C/C(=O)N2CCN(c3ccc(-n4nnc5c(=O)[nH]c6ccc(-c7ccc(OC)nc7)cc6c54)cc3C(F)(F)F)CC2)cc1 | > 10000 | – | –
COc1cccc(C(=O)/C=C/C(=O)N2CCN(c3ccc(-n4nnc5c(=O)[nH]c6ccc(-c7ccc(OC)nc7)cc6c54)cc3C(F)(F)F)CC2)c1 | 1050 | 68.4 | –
COc1ccc(-c2ccc3[nH]c(=O)c4nnn(-c5ccc(N6CCN(C(=O)/C=C/C(=O)c7ccc(OC(F)F)cc7)CC6)c(C(F)(F)F)c5)c4c3c2)cn1 | 1180 | 68.9 | –
COc1ccc(-c2ccc3[nH]c(=O)c4nnn(-c5ccc(N6CCN(C(=O)/C=C/C(=O)c7ccc([N+](=O)[O-])cc7)CC6)c(C(F)(F)F)c5)c4c3c2)cn1 | 3800 | 68.1 | –
COc1ccc(-c2ccc3[nH]c(=O)c4nnn(-c5ccc(N6CCN(C(=O)/C=C/C(=O)c7ccccc7F)CC6)c(C(F)(F)F)c5)c4c3c2)cn1 | 3650 | 62.8 | –
COc1ccc(-c2ccc3[nH]c(=O)c4nnn(-c5ccc(N6CCN(C(=O)/C=C/C(=O)c7ccc(C(F)(F)F)cc7)CC6)c(C(F)(F)F)c5)c4c3c2)cn1 | 1030 | 84.6 | –
COc1ccc(-c2ccc3[nH]c(=O)c4nnn(-c5ccc(N6CCN(C(=O)/C=C/C(=O)c7ccc(Br)cc7)CC6)c(C(F)(F)F)c5)c4c3c2)cn1 | 2180 | 70.1 | –
COc1ccc(-c2ccc3[nH]c(=O)c4nnn(-c5ccc(N6CCN(C(=O)/C=C/C(=O)c7ccc(OC)c(OC)c7)CC6)c(C(F)(F)F)c5)c4c3c2)cn1 | 1950 | 65 | –
COc1ccc(-c2ccc3[nH]c(=O)c4nnn(-c5ccc(N6CCN(C(=O)/C=C/C(=O)c7ccc(OC(C)C)cc7)CC6)c(C(F)(F)F)c5)c4c3c2)cn1 | 1070 | 66.1 | –
COc1ccc(-c2ccc3[nH]c(=O)c4nnn(-c5ccc(N6CCN(C(=O)/C=C/C(=O)c7ccc(Cl)cc7)CC6)c(C(F)(F)F)c5)c4c3c2)cn1 | 1540 | 75.1 | –
COc1ccc2cc([C@H](C)C(=O)Nc3cc(C)ccn3)ccc2c1 | – | – | Kd [11]: 520 nM
COc1ccc(-c2ccc3[nH]c(=O)c4nnn(-c5ccc(N6CCN(C(=O)/C=C/C(=O)c7ccc(OC(F)(F)F)cc7)CC6)c(C(F)(F)F)c5)c4c3c2)cn1 | 1750 | 84.5 | –
C=CC(=O)N1CCN(c2ccc(-n3nnc4c(=O)[nH]c5ccc(-c6ccc(OC)nc6)cc5c43)cc2C(F)(F)F)CC1 | 4310 | 81.4 | –
COc1ccc(-c2ccc3[nH]c(=O)c4nnn(-c5ccc(N6CCN(C(=O)/C=C/C(=O)c7ccccc7OC)CC6)c(C(F)(F)F)c5)c4c3c2)cn1 | 790 | 74.1 | –
